Data on one substance can be found in PMC11187126, “Structure and dynamics of the pyroglutamylated RF-amide peptide QRFP receptor GPR103” (Nature Communications, 2024).

This assay has as its target T1, GPR103 Q318^7.39A (Homo sapiens, UniProt Q96P65, Q318A).
T1 construct: we used human full-length QRFPR-encoding plasmids; expressed in transfected cells; host or cells: HEK293 cells (HEK293A in the flow cytometry section), pCAGGS vector
T1 sequence (Q96P65 1-431 Q318A): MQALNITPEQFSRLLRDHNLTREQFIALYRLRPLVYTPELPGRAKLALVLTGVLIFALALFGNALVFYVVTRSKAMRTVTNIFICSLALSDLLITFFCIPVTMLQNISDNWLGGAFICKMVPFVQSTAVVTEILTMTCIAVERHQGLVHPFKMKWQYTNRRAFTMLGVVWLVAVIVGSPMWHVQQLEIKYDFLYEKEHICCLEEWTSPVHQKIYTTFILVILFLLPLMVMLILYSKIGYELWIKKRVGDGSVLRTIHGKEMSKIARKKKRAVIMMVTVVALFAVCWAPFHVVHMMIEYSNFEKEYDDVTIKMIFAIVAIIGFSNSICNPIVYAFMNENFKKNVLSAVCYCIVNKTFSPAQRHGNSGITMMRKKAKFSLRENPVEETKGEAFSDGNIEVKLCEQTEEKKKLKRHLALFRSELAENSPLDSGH
As to the kind of experiment: TGFα shedding assay; Exp. level WT (1:50). The class given is cell-based.

Where two headings read alike, the source gives them in different places. No end group written: not given here.

In general, EC50 refers to the concentration giving half of the maximal effect. Lower therefore signals a more potent agent.

With TSGPLGNLAEELNGYSRKKGGFSFRF-NH2 [QRFP26], the Emax came to 14.85 % WT (Exp. #1); 10.08 % WT (Exp. #2); 10.26 % WT (Exp. #3); 11.7% (mean, read-out: Emax); 11.7 ± 1.3% (n = 3, read-out: Emax). Where the note is “n = 3”, this substance had a 50% effective concentration (EC50) of 85.1 nM.
